Measured values reported in PubChem BioAssay (NCI).
“And” between values parts separate entries of the source, which are not always exact repeats. Equal values may be shown once.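 Five compound concentrations were applied to cells in 96-well plates for 48 hours; endpoints were derived by simple linear interpolation of the resulting dose-response curve. GI50: concentration for 50% inhibition of growth. TGI marks complete inhibition of growth.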

Assays:
Assay in all cases: NCI tumour cell line growth inhibition, 48 h
LXFL 529 NSCLC = tested on: LXFL 529 NSCLC
DU-145 prostate = tested on: DU-145 prostate
DMS 114 small cell lung = tested on: DMS 114 small cell lung
HOP-18 NSCLC = tested on: HOP-18 NSCLC
RXF-631 renal = tested on: RXF-631 renal
P388/ADR leukemia = tested on: P388/ADR leukemia
P388 leukemia = tested on: P388 leukemia
NCI/ADR-RES ovarian = tested on: NCI/ADR-RES ovarian
SN12K1 renal = tested on: SN12K1 renal

`COC(=O)[C@@H]1[C@H](O)[C@H](C)[C@H](O)[C@@](C)(O)/C=C\C=C(C)C(=O)Nc2c(C)c(OC(C)=O)c3c(c2O)C(=O)C(C)=C2OCOC(=C23)C(C)=C[C@@](C)(O)[C@H](O)[C@@H](C)[C@H]1OC(C)=O` was tested, and the GI50 (LXFL 529 NSCLC) was 35.6 µM, the TGI (LXFL 529 NSCLC) was > 100 µM and 66.9 µM and the TGI (DU-145 prostate) was over 66.9 µM. The TGI (DMS 114 small cell lung) was > 100 µM and 21.9 µM, the GI50 (HOP-18 NSCLC) was 41.3 µM and the TGI (HOP-18 NSCLC) was > 100 µM and 66.9 µM. For the same molecule, the GI50 (RXF-631 renal) was > 100 µM and 39.8 µM and 36.4 µM and the TGI (RXF-631 renal) was > 100 µM and 66.9 µM.
Work on `O=CN/C=C/c1cc(O)ccc1O` yielded a TGI (P388/ADR leukemia) of 4.14 µM, a TGI (LXFL 529 NSCLC) of 23.9 µM and a TGI (P388 leukemia) of 5.2 µM. For the same molecule, the TGI (DU-145 prostate) was over 100 µM, the TGI (DMS 114 small cell lung) was 31.8 µM and the TGI (NCI/ADR-RES ovarian) was 42.1 µM. It also gave a TGI (HOP-18 NSCLC) of over 56.8 µM and a TGI (SN12K1 renal) of 32.4 µM.
For `Cc1cc(C)nc(NS(=O)(=O)c2ccc(NC(=O)c3ccc(Cl)c4c(Nc5ccc(S(=O)(=O)Nc6nc(C)cc(C)n6)cc5)c5ccccc5nc34)cc2)n1`, the TGI (LXFL 529 NSCLC) was 61.2 µM, the TGI (DMS 114 small cell lung) was 8.54 µM and the TGI (HOP-18 NSCLC) was 6.53 µM. The TGI (RXF-631 renal) was over 100 µM.
`CN(C)CC[N+]1=Nc2cccc3cccc(c23)N1` was tested, and the TGI (LXFL 529 NSCLC) was over 100 µM, the TGI (DMS 114 small cell lung) was over 100 µM and the TGI (HOP-18 NSCLC) was over 100 µM. It also gave a TGI (RXF-631 renal) of over 100 µM.
Molecule `C=C1C(=O)C23CC1CCC2C12CO[C@@H]4OCC(C)(CC[C@@H]1OC3=O)C42` (some centres not stated) has a TGI (LXFL 529 NSCLC) of 9.39 µM, a TGI (DMS 114 small cell lung) of 4.16 µM and a TGI (HOP-18 NSCLC) of 15.5 µM. It also gave a TGI (RXF-631 renal) of 47.8 µM.
`COC1(OC)CCC2C1C1CCC(OC)(OC)C21` (configuration not stated) showed a TGI (LXFL 529 NSCLC) of over 50 µM, a TGI (DMS 114 small cell lung) of over 50 µM and a TGI (HOP-18 NSCLC) of over 50 µM. The TGI (RXF-631 renal) was over 50 µM.
